Reference: ChEMBL document CHEMBL1141418 (J Med Chem, 2007)
Positions of bridges follow the written chain, without caps; N, C: chain ends. Non-standard residues stand in square brackets, D forms with d. Residues, ends and D or L forms follow the SMILES beside them. Cha = N[C@@H](CC1CCCCC1)C(=O)O; Orn = NCCC[C@H](N)C(=O)O; Dab = NCC[C@H](N)C(=O)O; Dap = NC[C@H](N)C(=O)O; Mpa = O=C(O)CCS

What was measured:
[1] = species on record: Rattus norvegicus; experiment: Antidiuretic activity in rat; type: functional, Urine
[2] = target: Vasopressin V2 receptor (Rattus norvegicus) (UniProt Q00788); experiment: Activity at vasopressin V2 receptor in rat kidney membranes assessed as maximal adenylate cyclase activity relative to AVP; type: functional, cell membranes; settings: Membrane, filed as agonist
[3] = target: Vasopressin V1a receptor (Rattus norvegicus, UniProt P30560); experiment: Displacement of [3H]AVP from vasopressin V1a receptor in rat liver membrane; type: cell membranes
[4] = target: Vasopressin V2 receptor (Rattus norvegicus, UniProt Q00788); experiment: Displacement of [3H]AVP from vasopressin V2 receptor in rat kidney membranes; type: cell membranes, Membrane
[5] = target: Vasopressin V2 receptor (Rattus norvegicus) (UniProt Q00788); experiment: Activity at vasopressin V2 receptor in rat kidney membranes assessed as adenylate cyclase activity; type: functional, cell membranes; settings: Membrane, filed as agonist
[6] = target: T1, Oxytocin receptor (Rattus norvegicus, UniProt P70536); experiment: Displacement of [3H]AVP from rat OT receptor expressed in CHO cells; type: cell-based
T1 sequence (P70536 whole entry): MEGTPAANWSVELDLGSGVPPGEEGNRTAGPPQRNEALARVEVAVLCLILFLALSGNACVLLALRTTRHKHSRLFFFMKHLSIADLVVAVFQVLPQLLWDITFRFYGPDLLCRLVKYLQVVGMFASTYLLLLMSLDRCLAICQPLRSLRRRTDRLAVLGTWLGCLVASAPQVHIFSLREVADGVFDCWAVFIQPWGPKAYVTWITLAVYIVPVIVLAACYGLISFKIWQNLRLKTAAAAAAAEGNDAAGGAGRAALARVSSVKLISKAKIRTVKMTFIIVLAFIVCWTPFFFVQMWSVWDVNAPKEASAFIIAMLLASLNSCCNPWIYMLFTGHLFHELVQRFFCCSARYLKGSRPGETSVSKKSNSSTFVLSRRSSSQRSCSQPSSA

[7] = species on record: Rattus norvegicus; experiment: Vasopressor activity in rat; type: functional
[8] = target: T2, Oxytocin receptor (Homo sapiens) (UniProt P30559); experiment: (§1) Activity at OT receptor assessed as oxytocic activity in absence of magnesium; type: functional; settings: filed as agonist
T2 sequence (whole entry): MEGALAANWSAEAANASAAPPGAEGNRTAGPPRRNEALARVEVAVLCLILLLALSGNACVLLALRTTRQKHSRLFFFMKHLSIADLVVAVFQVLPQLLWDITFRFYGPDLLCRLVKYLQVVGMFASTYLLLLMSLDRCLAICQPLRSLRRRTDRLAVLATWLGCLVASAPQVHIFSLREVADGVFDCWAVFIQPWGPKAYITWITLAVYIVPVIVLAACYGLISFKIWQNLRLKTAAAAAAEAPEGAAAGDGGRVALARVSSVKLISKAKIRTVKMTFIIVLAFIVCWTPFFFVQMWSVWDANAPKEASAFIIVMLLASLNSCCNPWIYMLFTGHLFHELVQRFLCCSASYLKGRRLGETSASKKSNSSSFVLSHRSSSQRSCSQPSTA

[9] = target: T3, Oxytocin receptor (Homo sapiens, UniProt P30559); experiment: as §1; type: functional; settings: read-out: pA2 (converted)
T3 sequence (P30559 whole entry): T2 sequence (whole entry)

[10] = target: T4, Vasopressin V1b receptor (Rattus norvegicus) (UniProt P48974); settings: AtT20, filed as agonist
T4 sequence (whole entry): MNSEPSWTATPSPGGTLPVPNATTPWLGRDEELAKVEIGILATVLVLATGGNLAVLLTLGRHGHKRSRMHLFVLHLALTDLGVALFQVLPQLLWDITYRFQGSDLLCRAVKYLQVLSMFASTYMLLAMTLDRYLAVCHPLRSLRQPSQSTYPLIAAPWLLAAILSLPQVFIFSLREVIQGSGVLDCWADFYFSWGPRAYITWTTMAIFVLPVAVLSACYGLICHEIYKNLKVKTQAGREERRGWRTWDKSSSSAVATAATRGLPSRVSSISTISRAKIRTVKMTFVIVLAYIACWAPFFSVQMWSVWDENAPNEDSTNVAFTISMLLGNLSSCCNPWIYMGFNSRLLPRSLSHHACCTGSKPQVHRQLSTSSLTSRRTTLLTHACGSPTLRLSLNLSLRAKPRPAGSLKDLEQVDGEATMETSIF

Sequence of Vasopressin V1a receptor (P30560 whole entry): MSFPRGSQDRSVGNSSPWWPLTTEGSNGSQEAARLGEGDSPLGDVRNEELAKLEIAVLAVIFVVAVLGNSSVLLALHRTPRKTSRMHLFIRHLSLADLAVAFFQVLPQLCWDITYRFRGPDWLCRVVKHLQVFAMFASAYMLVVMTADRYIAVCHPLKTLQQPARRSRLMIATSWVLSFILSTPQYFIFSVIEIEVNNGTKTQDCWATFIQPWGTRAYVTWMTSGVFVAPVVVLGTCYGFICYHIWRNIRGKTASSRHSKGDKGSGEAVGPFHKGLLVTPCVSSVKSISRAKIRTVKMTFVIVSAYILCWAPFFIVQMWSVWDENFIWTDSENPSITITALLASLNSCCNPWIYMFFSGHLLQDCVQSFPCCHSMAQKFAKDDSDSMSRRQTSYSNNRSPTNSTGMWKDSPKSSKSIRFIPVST
Sequence of Vasopressin V2 receptor (Rattus norvegicus) (Q00788 whole entry): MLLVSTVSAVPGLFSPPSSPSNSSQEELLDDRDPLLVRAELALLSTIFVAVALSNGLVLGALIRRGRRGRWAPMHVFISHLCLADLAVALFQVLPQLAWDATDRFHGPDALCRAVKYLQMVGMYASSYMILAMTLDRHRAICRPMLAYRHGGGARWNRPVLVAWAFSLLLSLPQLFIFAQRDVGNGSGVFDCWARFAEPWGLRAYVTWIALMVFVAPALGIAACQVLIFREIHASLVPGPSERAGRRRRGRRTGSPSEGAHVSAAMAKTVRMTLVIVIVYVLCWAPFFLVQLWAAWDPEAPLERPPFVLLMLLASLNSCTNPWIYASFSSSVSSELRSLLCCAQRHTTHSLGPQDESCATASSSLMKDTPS
Sequence of Vasopressin V2 receptor (Q00788 whole entry): as above

SMILES	Activity [1] [U/mg]	Activity [2] [%]	Ki [3]	Ki [4]	Kact [5] [nM]	Ki [6]	Activity [7] [U/mg]	Activity [8] [U/mg]	Kb [9]	Kact [10] [nM]
CC(C)C[C@@H]1NC(=O)[C@H](Cc2ccccc2)NC(=O)[C@H](Cc2ccc(O)cc2)NC(=O)CCSSC[C@@H](C(=O)N2CCC[C@H]2C(=O)N[C@@H](CCCCN)C(=O)NCC(N)=O)NC(=O)[C@H](CC(N)=O)NC1=O ([Mpa]YFLNCPKG-NH2; disulfide 1-6)	10.5	76	3800 nM (antagonist)	100 nM (antagonist)	196	64 nM (antagonist)	0.9	0.054		
CC(C)C[C@@H]1NC(=O)[C@H](Cc2ccccc2)NC(=O)[C@H](Cc2ccc(O)cc2)NC(=O)CCSSC[C@@H](C(=O)N2CCC[C@H]2C(=O)N[C@@H](CN)C(=O)NCC(N)=O)NC(=O)[C@H](CC(N)=O)NC1=O ([Mpa]YFLNCP[Dap]G-NH2; disulfide 1-6)	0.7	97	3300 nM (antagonist)	240 nM (antagonist)	300	134 nM (antagonist)	0.05	0.046		
NCCCC[C@H](NC(=O)[C@@H]1CCCN1C(=O)[C@@H]1CSSCCC(=O)N[C@@H](Cc2ccc(O)cc2)C(=O)N[C@@H](Cc2ccccc2)C(=O)N[C@@H](CC2CCCCC2)C(=O)N[C@@H](CC(N)=O)C(=O)N1)C(=O)NCC(N)=O ([Mpa]YF[Cha]NCPKG-NH2; disulfide 1-6)	0.82		9100 nM (antagonist)	600 nM (antagonist)		590 nM (antagonist)	0.043		331 nM (agonist)	
NC(=O)CNC(=O)[C@H](CCCN=C(N)N)NC(=O)[C@@H]1CCCN1C(=O)[C@@H]1CSSCCC(=O)N[C@@H](Cc2ccc(O)cc2)C(=O)N[C@@H](Cc2ccccc2)C(=O)N[C@@H](CC2CCCCC2)C(=O)N[C@@H](CC(N)=O)C(=O)N1 ([Mpa]YF[Cha]NCPRG-NH2; disulfide 1-6)	133.6	86	2300 nM (antagonist)	12.7 nM (antagonist)			0.067			
NCC[C@H](NC(=O)[C@@H]1CCCN1C(=O)[C@@H]1CSSCCC(=O)N[C@@H](Cc2ccc(O)cc2)C(=O)N[C@@H](Cc2ccccc2)C(=O)N[C@@H](CC2CCCCC2)C(=O)N[C@@H](CC(N)=O)C(=O)N1)C(=O)NCC(N)=O ([Mpa]YF[Cha]NCP[Dab]G-NH2; disulfide 1-6)	1	75	4400 nM (antagonist)	450 nM (antagonist)	174	430 nM (antagonist)	0.18		447 nM (agonist)	
NC[C@H](NC(=O)[C@@H]1CCCN1C(=O)[C@@H]1CSSCCC(=O)N[C@@H](Cc2ccc(O)cc2)C(=O)N[C@@H](Cc2ccccc2)C(=O)N[C@@H](CC2CCCCC2)C(=O)N[C@@H](CC(N)=O)C(=O)N1)C(=O)NCC(N)=O ([Mpa]YF[Cha]NCP[Dap]G-NH2; disulfide 1-6)	0.3		1800 nM (antagonist)	1050 nM (antagonist)		1200 nM (antagonist)	0.002		479 nM (agonist)	
NCCC[C@H](NC(=O)[C@@H]1CCCN1C(=O)[C@@H]1CSSCCC(=O)N[C@@H](Cc2ccc(O)cc2)C(=O)N[C@@H](Cc2ccccc2)C(=O)N[C@@H](CC2CCCCC2)C(=O)N[C@@H](CC(N)=O)C(=O)N1)C(=O)NCC(N)=O ([Mpa]YF[Cha]NCP[Orn]G-NH2; disulfide 1-6)	1		2900 nM (antagonist)	450 nM (antagonist)		550 nM (antagonist)	0.22		282 nM (agonist)	
NCCCC[C@H](NC(=O)[C@@H]1CCCN1C(=O)[C@@H]1CSSCCC(=O)N[C@@H](Cc2ccc(O)cc2)C(=O)N[C@@H](Cc2ccccc2)C(=O)N[C@@H](CCCN)C(=O)N[C@@H](CC(N)=O)C(=O)N1)C(=O)NCC(N)=O ([Mpa]YF[Orn]NCPKG-NH2; disulfide 1-6)	7.8		2800 nM (antagonist)	51 nM (antagonist)		22 nM (antagonist)	0.23	3.1		
NCCC[C@@H]1NC(=O)[C@H](Cc2ccccc2)NC(=O)[C@H](Cc2ccc(O)cc2)NC(=O)CCSSC[C@@H](C(=O)N2CCC[C@H]2C(=O)N[C@@H](CCCN)C(=O)NCC(N)=O)NC(=O)[C@H](CC(N)=O)NC1=O ([Mpa]YF[Orn]NCP[Orn]G-NH2; disulfide 1-6)	7.9		1300 nM (antagonist)	76 nM (antagonist)		37 nM (antagonist)	1.9	2.8		
N=C(N)NCCC[C@H](NC(=O)[C@@H]1CCCN1C(=O)[C@@H]1CSSC[C@H](N)C(=O)N[C@@H](Cc2ccc(O)cc2)C(=O)N[C@@H](Cc2ccccc2)C(=O)N[C@@H](CCC(N)=O)C(=O)N[C@@H](CC(N)=O)C(=O)N1)C(=O)NCC(N)=O [VASOPRESSIN]	323				0.32					2.3
